Measurements: ChEMBL document CHEMBL1938350, “Recent progress in biological activities of synthesized phenothiazines” (Eur J Med Chem, 2011)
Converted amounts (≈) assume the structure as drawn.

Experiments:
[1] = test system: Trichophyton mentagrophytes; assay: Antifungal activity against Trichophyton mentagrophytes; assay type: functional
Saccharomyces cerevisiae = assay: Antifungal activity against Saccharomyces cerevisiae; assay type: functional
[2] = Cytotoxicity against human leukemia cells; assay type: functional; details: Leukemia cell
[3] = Cytotoxicity against human colon cancer cells; assay type: functional; details: Cancer cell lines, read-out: LC50 (the source's name)
[4] = target: T1, Kinesin-like protein KIF11 (Homo sapiens, UniProt P52732); assay: Inhibition of mitotic kinesin Eg5 in human transformed WI38VA13 cells assessed as inhibition of microtubule-activated ATPase activity; assay type: cell-based
T1 sequence (P52732 whole entry): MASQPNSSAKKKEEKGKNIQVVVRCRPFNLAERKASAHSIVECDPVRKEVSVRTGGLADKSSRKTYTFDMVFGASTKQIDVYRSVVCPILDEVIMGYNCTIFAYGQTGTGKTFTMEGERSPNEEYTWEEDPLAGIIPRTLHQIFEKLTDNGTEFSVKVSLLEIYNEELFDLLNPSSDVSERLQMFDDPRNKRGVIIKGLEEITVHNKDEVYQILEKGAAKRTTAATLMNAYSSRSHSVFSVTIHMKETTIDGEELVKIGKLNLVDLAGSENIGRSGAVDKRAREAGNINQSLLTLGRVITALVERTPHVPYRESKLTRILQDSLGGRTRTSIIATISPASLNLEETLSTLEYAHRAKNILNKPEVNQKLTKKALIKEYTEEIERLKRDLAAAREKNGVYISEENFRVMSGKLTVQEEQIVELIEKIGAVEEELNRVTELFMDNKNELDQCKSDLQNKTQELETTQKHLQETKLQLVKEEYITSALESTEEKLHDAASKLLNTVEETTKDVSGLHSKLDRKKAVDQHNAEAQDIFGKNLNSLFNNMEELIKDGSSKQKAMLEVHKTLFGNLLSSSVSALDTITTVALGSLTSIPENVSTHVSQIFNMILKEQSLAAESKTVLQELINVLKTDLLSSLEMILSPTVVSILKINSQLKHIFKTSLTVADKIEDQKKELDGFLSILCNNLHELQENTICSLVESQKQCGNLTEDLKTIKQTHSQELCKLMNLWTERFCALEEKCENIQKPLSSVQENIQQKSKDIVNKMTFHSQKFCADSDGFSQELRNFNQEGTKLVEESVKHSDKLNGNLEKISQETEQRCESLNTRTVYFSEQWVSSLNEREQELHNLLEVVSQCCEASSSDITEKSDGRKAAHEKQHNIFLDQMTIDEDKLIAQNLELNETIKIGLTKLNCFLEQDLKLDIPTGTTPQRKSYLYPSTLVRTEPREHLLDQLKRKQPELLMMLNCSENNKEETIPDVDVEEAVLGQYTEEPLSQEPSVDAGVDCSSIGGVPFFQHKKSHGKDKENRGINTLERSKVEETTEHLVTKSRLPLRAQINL

WI-38 [5] = assay: Antimitotic activity against human non-transformed WI38 cells assessed as monoastral spindle formation at 5 uM after 1 day; assay type: functional
WI-38 [6] = assay: Antimitotic activity against human non-transformed WI38 cells assessed as cell viability at 5 uM after 1 day; assay type: functional; details: WI-38, 24 h, read-out: Activity
SK-MEL-5 = assay: Cytotoxicity against human SK-MEL-5 cells; assay type: functional
IGROV-1 = assay: Cytotoxicity against human IGROV1 cells; assay type: functional
[7] = Potentiation of doxorubicin-induced cytotoxicity against human A2780/DX3 cells after 16 hrs; assay type: functional
[8] = Antiplatelet activity in rabbit platelets assessed as inhibition of arachidonic acid-induced platelet aggregation; assay type: functional, cell-based, Oryctolagus cuniculus
[9] = Antiplatelet activity in rabbit platelets assessed as inhibition of collagen-induced platelet aggregation; assay type: functional, cell-based, Oryctolagus cuniculus
Mus musculus = assay: Antiinflammatory activity in mouse assessed as inhibition of edema formation; assay type: functional
[10] = Toxicity in rat; assay type: organism-based; details: in vivo, read-out: ALD50
Rattus norvegicus = species on record: Rattus norvegicus; assay: Anticonvulsant activity in rat assessed as inhibition of seizures; assay type: functional
[11] = Oryctolagus cuniculus, Platelet

## NCCCCN1c2ccccc2Sc2ccc(C(F)(F)F)cc21
[1]
  MIC: 1.5 µg/mL (≈ 4.43 µM)
Saccharomyces cerevisiae
  MIC: 0.4 µg/mL (≈ 1.18 µM)

## O=C(NCCCl)NCCCCN1c2ccccc2Sc2ccc(Cl)cc21
[2]
  GI50: 1.4 µM
[3]
  CC50: 5.7 µM

## OC(CNCCc1ccccc1)CN1c2ccccc2Sc2ccc(Cl)cc21 (stereo unspecified)
[4]
  IC50: 1.52 µM
WI-38 [5]
  Activity: 90%
WI-38 [6]
  viability at 5 µM: 90%

## O=C(NCCCl)NCCN1c2nc3ccccc3cc2Sc2cc3ccccc3nc21
SK-MEL-5
  GI50: 0.088 µM

## CCN(CC)CCN1c2nc3ccccc3cc2Sc2cc3ccccc3nc21
IGROV-1
  GI50: 0.19 µM

## O=C(CSCC1CCCN2CCCCC12)N1c2ccccc2Sc2ccc(Cl)cc21 (stereo unspecified)
[7]
  fold change (FC): 3.96

## O=C(CSCC1CCCN2CCCCC12)N1c2ccccc2Sc2ccc(C(F)(F)F)cc21 (stereo unspecified)
[7]
  fold change (FC): 3.96

## COc1ccc2c(c1)N(C(=O)CCSCC1CCCN3CCCCC13)c1ccccc1S2 (stereo unspecified)
[7]
  fold change (FC): 3.96

## CN(C)c1ccc(/C=N/NC(=O)N2c3ccccc3Sc3ccccc32)cc1
[8]
  inhibition (INH): 100%
[9]
  inhibition (INH): 100%
Mus musculus
  inhibition (INH): 20.5%

## O=C(O)c1ccc(/C=N/NC(=O)N2c3ccccc3Sc3ccccc32)cc1
[8]
  inhibition (INH): 100%
[9]
  inhibition (INH): 100%
Mus musculus
  inhibition (INH): 51%

## O=C(N/N=C/c1ccccc1)N1c2ccccc2Sc2ccccc21
[8]; [11]
  IC50: 2.3 µM
[9]; [11]
  IC50: 2.3 µM

## NNC(=O)N1c2ccccc2Sc2ccccc21
[8]
  inhibition (INH): 100%
[9]
  inhibition (INH): 100%

## O=C(N/N=C/C1CCCO1)N1c2ccccc2Sc2ccccc21 (stereo unspecified)
[8]
  inhibition (INH): 100%
[9]
  inhibition (INH): 100%

## O=C(N/N=C/C1CCCS1)N1c2ccccc2Sc2ccccc21 (stereo unspecified)
[8]
  inhibition (INH): 100%
[9]
  inhibition (INH): 100%

## O=C1NC(=O)C(CNc2nnc(CN3c4ccccc4Sc4ccccc43)o2)C(=O)N1
[10]
  LD50: 1000 mg/kg
Rattus norvegicus
  inhibition (INH): 80%

## O=C1NC(=S)NC(=O)C1CNc1nnc(CN2c3ccccc3Sc3ccccc32)s1
[10]
  LD50: 1000 mg/kg
Rattus norvegicus
  inhibition (INH): 80%

## O=C1N=C([O-])NC1(c1ccccc1)c1ccccc1.[Na+] [PHENYTOIN SODIUM]
[10]
  LD50: 1000 mg/kg
